Data: patent US8933230B2, “Phosphorus-containing group-substituted quinoline, its preparation process, medical composition containing the compounds and application” (priority 2011, dated 2015)

Columns and labels:
Assay in all cases: KinomeScan kinase panel
Assay type in all cases: binding
ABL2 = molecular target: T1, ABL2 (Homo sapiens, UniProt P42684)
T1 construct: purchased DiscoveRx Corporation (KinomeScan)
Summary of the method: (§1)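 Compound is added at 1000 nM to each assay of the KinomeScan 442-kinase panel. Inhibitory effect is then recorded per kinase.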

ARK5 = molecular target: T2, ARK5 (Homo sapiens, UniProt O60285)
T2 construct: purchased DiscoveRx Corporation (KinomeScan)
T2 sequence (O60285 whole entry): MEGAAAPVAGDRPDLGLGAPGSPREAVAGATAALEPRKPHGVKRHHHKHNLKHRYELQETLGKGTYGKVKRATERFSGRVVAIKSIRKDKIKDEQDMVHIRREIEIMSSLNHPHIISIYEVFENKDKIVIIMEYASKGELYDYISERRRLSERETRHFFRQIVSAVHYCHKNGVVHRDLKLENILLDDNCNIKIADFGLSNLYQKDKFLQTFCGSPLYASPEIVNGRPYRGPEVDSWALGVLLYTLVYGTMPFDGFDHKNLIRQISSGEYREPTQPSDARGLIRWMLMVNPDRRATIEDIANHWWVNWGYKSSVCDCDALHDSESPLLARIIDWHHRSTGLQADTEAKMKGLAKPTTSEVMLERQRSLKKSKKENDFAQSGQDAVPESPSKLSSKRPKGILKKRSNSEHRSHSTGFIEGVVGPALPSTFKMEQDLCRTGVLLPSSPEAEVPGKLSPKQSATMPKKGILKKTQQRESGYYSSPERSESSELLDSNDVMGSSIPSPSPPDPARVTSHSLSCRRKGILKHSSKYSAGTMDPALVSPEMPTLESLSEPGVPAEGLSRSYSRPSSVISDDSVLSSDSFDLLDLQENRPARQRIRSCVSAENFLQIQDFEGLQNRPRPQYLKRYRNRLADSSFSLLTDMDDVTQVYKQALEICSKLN
Summary of the method: as §1

ASK1 = molecular target: T3, ASK1 (Homo sapiens, UniProt Q99683)
T3 construct: purchased DiscoveRx Corporation (KinomeScan)
Summary of the method: as §1

AURKA = molecular target: T4, AURKA (Homo sapiens, UniProt O14965)
T4 construct: purchased DiscoveRx Corporation (KinomeScan)
T4 sequence (O14965 whole entry): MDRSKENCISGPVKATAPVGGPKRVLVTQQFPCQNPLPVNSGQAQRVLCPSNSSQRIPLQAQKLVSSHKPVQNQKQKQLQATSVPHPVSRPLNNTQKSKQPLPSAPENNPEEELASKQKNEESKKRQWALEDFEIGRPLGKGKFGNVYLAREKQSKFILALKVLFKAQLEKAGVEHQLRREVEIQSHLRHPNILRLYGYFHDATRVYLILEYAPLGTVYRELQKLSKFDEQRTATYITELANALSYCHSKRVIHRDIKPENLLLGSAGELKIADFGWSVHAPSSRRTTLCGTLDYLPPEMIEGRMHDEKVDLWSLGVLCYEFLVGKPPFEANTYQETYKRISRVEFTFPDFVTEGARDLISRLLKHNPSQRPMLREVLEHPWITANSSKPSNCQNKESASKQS
Summary of the method: as §1

BMPR1B = molecular target: T5, BMPR1B (Homo sapiens, UniProt O00238)
T5 construct: purchased DiscoveRx Corporation (KinomeScan)
Summary of the method: as §1

BTK = molecular target: T6, BTK (Homo sapiens, UniProt Q06187)
T6 construct: purchased DiscoveRx Corporation (KinomeScan)
Summary of the method: as §1

CAMK1G = molecular target: T7, CAMK1G (Homo sapiens, UniProt Q96NX5)
T7 construct: purchased DiscoveRx Corporation (KinomeScan)
Summary of the method: as §1

CDK7 = molecular target: T8, CDK7 (Homo sapiens, UniProt P50613)
T8 construct: purchased DiscoveRx Corporation (KinomeScan)
Summary of the method: as §1

CDK9 = molecular target: T9, CDK9 (Homo sapiens, UniProt P50750)
T9 construct: purchased DiscoveRx Corporation (KinomeScan)
Summary of the method: as §1

CLK2 = molecular target: T10, CLK2 (Homo sapiens, UniProt P49760)
T10 construct: purchased DiscoveRx Corporation (KinomeScan)
Summary of the method: as §1

CSK = molecular target: T11, CSK (Homo sapiens, UniProt P41240)
T11 construct: purchased DiscoveRx Corporation (KinomeScan)
Summary of the method: as §1

CSNK1D = molecular target: T12, CSNK1D (Homo sapiens, UniProt P48730)
T12 construct: purchased DiscoveRx Corporation (KinomeScan)
T12 sequence (P48730 whole entry): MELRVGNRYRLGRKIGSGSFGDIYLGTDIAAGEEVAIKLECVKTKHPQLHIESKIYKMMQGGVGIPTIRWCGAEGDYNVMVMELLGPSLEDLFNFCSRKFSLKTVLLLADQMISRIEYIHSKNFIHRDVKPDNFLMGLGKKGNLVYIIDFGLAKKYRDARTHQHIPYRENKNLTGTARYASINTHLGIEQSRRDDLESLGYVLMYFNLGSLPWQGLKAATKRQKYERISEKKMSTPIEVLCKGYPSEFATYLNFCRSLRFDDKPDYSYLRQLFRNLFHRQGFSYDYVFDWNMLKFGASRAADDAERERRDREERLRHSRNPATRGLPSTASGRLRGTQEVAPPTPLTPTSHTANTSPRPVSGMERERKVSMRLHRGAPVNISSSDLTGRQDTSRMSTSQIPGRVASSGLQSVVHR
Summary of the method: as §1

DAPK2 = molecular target: T13, DAPK2 (Homo sapiens, UniProt Q9UIK4)
T13 construct: purchased DiscoveRx Corporation (KinomeScan)
Summary of the method: as §1

DMPK2 = molecular target: T14, DMPK2 (Homo sapiens, UniProt Q6DT37)
T14 construct: purchased DiscoveRx Corporation (KinomeScan)
T14 sequence (Q6DT37 whole entry): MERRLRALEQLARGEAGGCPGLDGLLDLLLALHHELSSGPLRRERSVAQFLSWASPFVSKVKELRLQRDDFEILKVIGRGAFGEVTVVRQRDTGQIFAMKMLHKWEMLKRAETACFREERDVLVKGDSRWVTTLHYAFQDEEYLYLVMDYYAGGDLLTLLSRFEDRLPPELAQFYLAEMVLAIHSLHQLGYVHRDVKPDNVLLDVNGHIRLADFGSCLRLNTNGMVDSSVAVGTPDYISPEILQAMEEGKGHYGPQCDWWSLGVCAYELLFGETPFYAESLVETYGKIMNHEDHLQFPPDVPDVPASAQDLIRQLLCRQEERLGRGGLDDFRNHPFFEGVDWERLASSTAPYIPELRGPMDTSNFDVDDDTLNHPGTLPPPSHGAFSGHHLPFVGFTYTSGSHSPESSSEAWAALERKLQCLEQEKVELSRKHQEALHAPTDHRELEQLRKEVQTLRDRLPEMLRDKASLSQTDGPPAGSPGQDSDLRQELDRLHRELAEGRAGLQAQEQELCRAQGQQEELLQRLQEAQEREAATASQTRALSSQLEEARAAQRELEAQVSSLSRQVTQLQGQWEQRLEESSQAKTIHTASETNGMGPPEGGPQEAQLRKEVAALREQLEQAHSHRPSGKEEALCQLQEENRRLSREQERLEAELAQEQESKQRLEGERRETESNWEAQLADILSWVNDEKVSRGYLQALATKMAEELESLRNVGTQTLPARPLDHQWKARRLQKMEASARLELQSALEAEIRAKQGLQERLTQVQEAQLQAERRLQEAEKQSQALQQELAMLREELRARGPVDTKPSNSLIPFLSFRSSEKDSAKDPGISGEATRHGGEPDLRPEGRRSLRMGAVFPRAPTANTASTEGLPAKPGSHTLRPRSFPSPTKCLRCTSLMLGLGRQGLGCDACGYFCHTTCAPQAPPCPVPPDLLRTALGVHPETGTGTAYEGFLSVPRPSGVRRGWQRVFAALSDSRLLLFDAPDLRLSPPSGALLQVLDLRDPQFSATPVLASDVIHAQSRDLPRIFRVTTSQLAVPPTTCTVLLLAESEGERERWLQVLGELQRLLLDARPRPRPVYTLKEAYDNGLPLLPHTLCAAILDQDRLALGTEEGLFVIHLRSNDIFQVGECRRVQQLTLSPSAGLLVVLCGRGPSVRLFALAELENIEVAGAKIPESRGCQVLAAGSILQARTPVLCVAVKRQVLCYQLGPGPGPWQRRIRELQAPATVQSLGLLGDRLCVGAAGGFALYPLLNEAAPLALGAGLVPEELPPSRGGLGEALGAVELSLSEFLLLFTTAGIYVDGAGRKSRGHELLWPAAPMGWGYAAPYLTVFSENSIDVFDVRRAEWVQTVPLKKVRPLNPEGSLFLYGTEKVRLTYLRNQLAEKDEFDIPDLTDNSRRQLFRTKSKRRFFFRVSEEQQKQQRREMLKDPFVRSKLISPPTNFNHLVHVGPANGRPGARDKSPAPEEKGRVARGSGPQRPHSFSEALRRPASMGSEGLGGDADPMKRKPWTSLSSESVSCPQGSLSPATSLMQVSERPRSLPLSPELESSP
Summary of the method: as §1

EPHA1 = molecular target: T15, EPHA1 (Homo sapiens, UniProt P21709)
T15 construct: purchased DiscoveRx Corporation (KinomeScan)
Summary of the method: as §1

EPHA5 = molecular target: T16, EPHA5 (Homo sapiens, UniProt P54756)
T16 construct: purchased DiscoveRx Corporation (KinomeScan)
Summary of the method: as §1

ERBB2 = molecular target: T17, ERBB2 (Homo sapiens, UniProt P04626)
T17 construct: purchased DiscoveRx Corporation (KinomeScan)
T17 sequence (P04626 23-1255): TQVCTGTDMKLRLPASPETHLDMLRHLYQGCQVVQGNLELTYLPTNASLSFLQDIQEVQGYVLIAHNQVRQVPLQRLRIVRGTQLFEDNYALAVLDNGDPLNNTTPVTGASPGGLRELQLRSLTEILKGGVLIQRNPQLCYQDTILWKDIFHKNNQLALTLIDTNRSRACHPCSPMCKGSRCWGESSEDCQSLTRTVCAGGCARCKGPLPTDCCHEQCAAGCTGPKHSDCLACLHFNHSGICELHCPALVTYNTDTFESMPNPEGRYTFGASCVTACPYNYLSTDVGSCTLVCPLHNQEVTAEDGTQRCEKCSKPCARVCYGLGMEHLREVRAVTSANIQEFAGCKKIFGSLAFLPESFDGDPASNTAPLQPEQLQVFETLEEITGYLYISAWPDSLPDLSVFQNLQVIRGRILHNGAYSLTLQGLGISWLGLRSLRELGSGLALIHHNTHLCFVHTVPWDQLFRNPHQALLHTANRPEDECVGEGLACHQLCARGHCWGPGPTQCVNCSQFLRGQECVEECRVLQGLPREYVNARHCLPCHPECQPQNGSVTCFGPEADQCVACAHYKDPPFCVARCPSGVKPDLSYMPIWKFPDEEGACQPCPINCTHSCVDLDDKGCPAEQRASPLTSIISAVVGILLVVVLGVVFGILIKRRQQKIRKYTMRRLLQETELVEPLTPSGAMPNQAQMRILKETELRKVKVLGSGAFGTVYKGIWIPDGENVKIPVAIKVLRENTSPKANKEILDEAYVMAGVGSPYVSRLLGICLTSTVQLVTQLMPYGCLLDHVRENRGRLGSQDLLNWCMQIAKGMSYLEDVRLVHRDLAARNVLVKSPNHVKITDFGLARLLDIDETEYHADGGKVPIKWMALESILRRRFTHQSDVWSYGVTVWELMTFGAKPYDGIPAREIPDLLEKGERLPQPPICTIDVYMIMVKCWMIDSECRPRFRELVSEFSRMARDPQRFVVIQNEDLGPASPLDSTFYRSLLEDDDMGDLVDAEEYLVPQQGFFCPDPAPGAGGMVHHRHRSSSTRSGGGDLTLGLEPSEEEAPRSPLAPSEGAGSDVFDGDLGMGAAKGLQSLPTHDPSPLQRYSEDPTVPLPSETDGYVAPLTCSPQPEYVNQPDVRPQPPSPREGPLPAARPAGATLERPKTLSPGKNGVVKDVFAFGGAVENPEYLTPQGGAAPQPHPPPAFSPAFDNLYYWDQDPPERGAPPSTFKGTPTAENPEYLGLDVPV
Summary of the method: as §1

FLT3(K663Q) = molecular target: T18, FLT3(K663Q) (Homo sapiens, UniProt P36888, K663Q)
T18 construct: purchased DiscoveRx Corporation (KinomeScan)
Summary of the method: as §1

GSK3A = molecular target: T19, GSK3A (Homo sapiens, UniProt P49840)
T19 construct: purchased DiscoveRx Corporation (KinomeScan)
Summary of the method: as §1

HCK = molecular target: T20, HCK (Homo sapiens, UniProt P08631)
T20 construct: purchased DiscoveRx Corporation (KinomeScan)
Summary of the method: as §1

IKK-beta = molecular target: T21, IKK-beta (Homo sapiens, UniProt O14920)
T21 construct: purchased DiscoveRx Corporation (KinomeScan)
Summary of the method: as §1

INSR = molecular target: T22, INSR (Homo sapiens, UniProt P06213)
T22 construct: purchased DiscoveRx Corporation (KinomeScan)
Summary of the method: as §1

IRAK3 = molecular target: T23, IRAK3 (Homo sapiens, UniProt Q9Y616)
T23 construct: purchased DiscoveRx Corporation (KinomeScan)
Summary of the method: as §1

MAP3K4 = molecular target: T24, MAP3K4 (Homo sapiens, UniProt Q9Y6R4)
T24 construct: purchased DiscoveRx Corporation (KinomeScan)
Summary of the method: as §1

MAP4K5 = molecular target: T25, MAP4K5 (Homo sapiens, UniProt Q9Y4K4)
T25 construct: purchased DiscoveRx Corporation (KinomeScan)
Summary of the method: as §1

MYLK4 = molecular target: T26, MYLK4 (Homo sapiens, UniProt Q86YV6)
T26 construct: purchased DiscoveRx Corporation (KinomeScan)
Summary of the method: as §1

PAK4 = molecular target: T27, PAK4 (Homo sapiens, UniProt O96013)
T27 construct: purchased DiscoveRx Corporation (KinomeScan panel)
Summary of the method: as §1

PFTK = molecular target: T28, PFTK (Homo sapiens, UniProt O94921)
T28 construct: purchased DiscoveRx Corporation (KinomeScan)
Summary of the method: as §1

PIK4CB = molecular target: T29, PIK4CB (Homo sapiens, UniProt Q9UBF8)
T29 construct: purchased DiscoveRx Corporation (KinomeScan)
T29 sequence (Q9UBF8 whole entry): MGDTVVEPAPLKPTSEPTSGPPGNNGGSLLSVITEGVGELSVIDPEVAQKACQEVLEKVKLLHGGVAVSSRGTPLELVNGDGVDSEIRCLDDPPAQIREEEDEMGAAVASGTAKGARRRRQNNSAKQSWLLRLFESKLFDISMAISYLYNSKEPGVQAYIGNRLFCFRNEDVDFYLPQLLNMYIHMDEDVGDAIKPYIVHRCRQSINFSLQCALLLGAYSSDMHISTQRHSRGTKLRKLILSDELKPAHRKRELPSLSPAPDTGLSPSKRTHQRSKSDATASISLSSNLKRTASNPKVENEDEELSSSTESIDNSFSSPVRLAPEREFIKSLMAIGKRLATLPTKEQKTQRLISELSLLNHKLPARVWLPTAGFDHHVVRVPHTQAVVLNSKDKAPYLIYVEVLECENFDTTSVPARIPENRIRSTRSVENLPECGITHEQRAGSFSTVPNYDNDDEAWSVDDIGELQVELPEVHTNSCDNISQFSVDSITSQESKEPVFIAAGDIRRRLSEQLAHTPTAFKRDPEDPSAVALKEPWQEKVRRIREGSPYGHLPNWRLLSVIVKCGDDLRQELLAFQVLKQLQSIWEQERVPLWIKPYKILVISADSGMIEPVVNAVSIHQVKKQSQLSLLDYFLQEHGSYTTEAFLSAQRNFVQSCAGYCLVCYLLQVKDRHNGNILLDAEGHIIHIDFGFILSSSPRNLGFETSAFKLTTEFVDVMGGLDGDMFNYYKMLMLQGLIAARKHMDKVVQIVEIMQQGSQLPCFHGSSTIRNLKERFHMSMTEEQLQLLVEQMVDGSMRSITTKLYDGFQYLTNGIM
Summary of the method: as §1

PIP5K1C = molecular target: T30, PIP5K1C (Homo sapiens, UniProt O60331)
T30 construct: purchased DiscoveRx Corporation (KinomeScan)
Summary of the method: as §1

RIPK4 = molecular target: T31, RIPK4 (Homo sapiens, UniProt P57078)
T31 construct: purchased DiscoveRx Corporation
Summary of the method: as §1

[1] = molecular target: T32, RSK3(Kin.Dom.2-C-terminal) (Homo sapiens, UniProt Q15349)
T32 construct: Kin.Dom.2; purchased DiscoveRx Corporation (KinomeScan)
Summary of the method: as §1

SNRK = molecular target: T33, SNRK (Homo sapiens, UniProt Q9NRH2)
T33 construct: purchased DiscoveRx Corporation (KinomeScan)
Summary of the method: as §1

TEC = molecular target: T34, TEC (Homo sapiens, UniProt P42680)
T34 construct: purchased DiscoveRx Corporation (KinomeScan)
Summary of the method: as §1

[2] = molecular target: T35, TYK2(JH1domain-pseudokinase) (Homo sapiens, UniProt P29597)
T35 construct: pseudokinase; purchased DiscoveRx Corporation (KinomeScan service)
Summary of the method: as §1

YANK2 = molecular target: T36, YANK2 (Homo sapiens, UniProt Q9NY57)
T36 construct: purchased DiscoveRx Corporation (KinomeScan service)
Summary of the method: as §1

CCOP(=O)(CN1CCC(COc2cc3nccc(Oc4ccc(NC(=O)C5(C(=O)Nc6ccc(F)cc6)CC5)cc4F)c3cc2OC)CC1)OCC [Example 10, N1-[4-[[7-[[1-(diethoxyphosphorylmethyl)-4-piperidinyl]methoxyl]-6-methoxyl-4-quinolyl]oxyl]-3-fluorophenyl]-N1′-(4-fluorophenyl)cyclopropane-1,1-dicarboxamide]
% Ctrl@1000 nM (ABL2): 28 % Ctrl | % Ctrl@1000 nM (ARK5): 100 % Ctrl | % Ctrl@1000 nM (ASK1): 100 % Ctrl | % Ctrl@1000 nM (AURKA): 100 % Ctrl | % Ctrl@1000 nM (BMPR1B): 100 % Ctrl | % Ctrl@1000 nM (BTK): 51 % Ctrl | % Ctrl@1000 nM (CAMK1G): 88 % Ctrl | % Ctrl@1000 nM (CDK7): 15 % Ctrl | % Ctrl@1000 nM (CDK9): 100 % Ctrl | % Ctrl@1000 nM (CLK2): 78 % Ctrl | % Ctrl@1000 nM (CSK): 14 % Ctrl | % Ctrl@1000 nM (CSNK1D): 100 % Ctrl | % Ctrl@1000 nM (DAPK2): 100 % Ctrl | % Ctrl@1000 nM (DMPK2): 76 % Ctrl | % Ctrl@1000 nM (EPHA1): 4.6 % Ctrl | % Ctrl@1000 nM (EPHA5): 3.5 % Ctrl | % Ctrl@1000 nM (ERBB2): 96 % Ctrl | % Ctrl@1000 nM (FLT3(K663Q)): 0.55 % Ctrl | % Ctrl@1000 nM (GSK3A): 100 % Ctrl | % Ctrl@1000 nM (HCK): 0.35 % Ctrl | % Ctrl@1000 nM (IKK-beta): 100 % Ctrl | % Ctrl@1000 nM (INSR): 54 % Ctrl | % Ctrl@1000 nM (IRAK3): 33 % Ctrl | % Ctrl@1000 nM (MAP3K4): 100 % Ctrl | % Ctrl@1000 nM (MAP4K5): 2.8 % Ctrl | % Ctrl@1000 nM (MYLK4): 100 % Ctrl | % Ctrl@1000 nM (PAK4): 100 % Ctrl | % Ctrl@1000 nM (PFTK): 100 % Ctrl | % Ctrl@1000 nM (PIK4CB): 100 % Ctrl | % Ctrl@1000 nM (PIP5K1C): 100 % Ctrl | % Ctrl@1000 nM (RIPK4): 89 % Ctrl | % Ctrl@1000 nM [1]: 100 % Ctrl | % Ctrl@1000 nM (SNRK): 100 % Ctrl | % Ctrl@1000 nM (TEC): 100 % Ctrl | % Ctrl@1000 nM [2]: 100 % Ctrl | % Ctrl@1000 nM (YANK2): 100 % Ctrl
